The results in this text go back to ChEMBL document CHEMBL1201862, “PubChem BioAssay data set” (2004).

The structures appear in SMILES notation.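 Step 1: Grow cells in 96-well plates. Step 2: Expose to compound for 48 hours at 5 concentrations. Step 3: Interpolate endpoints linearly; if unreached, use highest concentration. GI50 marks 50% less growth.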 Active and inactive are the calls of the source. Cut-off read from the data, not from the text of the source: active = GI50 up to about 1.1 µM and inactive = higher.

Some test systems named below: COLO 205; RPMI-8226; SF-295; HT-29; SW-620; T47D; EKVX; NCI-H460; SF-539; A549; CAKI-1; MOLT-4; NCI-H522; SK-OV-3; HCT-116; LOX IMVI; MDA-N; SN12C.
Holding throughout (assay): growth of human tumour cells (NCI), 48 h

Consider `CCCc1c(O)c(=O)c2c(OC)cc(OC)c3c4c(OC)cc(OC)c5c(=O)c(O)c(CCC)c(c1c23)c54`, for which the GI50 in the assay on COLO 205 was 2.44 µM (inactive); in the assay on RPMI-8226, 0.192 µM (active); with SF-295, 0.37 µM (active); with HT-29, 0.729 µM (active); in the assay with SW-620 it was 1.13 µM (inactive); in the assay with T47D, 1.33 µM (inactive). The GI50 with EKVX was 1.06 µM (active); in the assay on NCI-H460 it was 0.301 µM (active); with SF-539, 0.361 µM (active); in the assay on A549, 0.386 µM (active); in the assay with CAKI-1, 0.394 µM (active); with MOLT-4 it was 0.0883 µM (active). The GI50 with NCI-H522 is 0.199 µM (active); in the assay with SK-OV-3, 0.342 µM (active); in the assay on HCT-116 it was 0.299 µM (active); with LOX IMVI, 0.338 µM (active); in the assay with MDA-N it was 0.425 µM (active); in the assay on SN12C it was 1.76 µM (inactive).
Take `COC(=O)c1ccc(C)cc1CC1Cc2c(C)cccc2C1=O` (stereo not drawn): the GI50 with COLO 205 was 5.69 µM (inactive); with RPMI-8226, 4.65 µM (inactive); in the assay on SF-295 it was 7.73 µM (inactive); in the assay on HT-29 it was 3.04 µM (inactive); with SW-620, 3.85 µM (inactive); in the assay with T47D, 7.93 µM (inactive). For the same compound, the GI50 in the assay with EKVX is 18 µM (inactive); in the assay on NCI-H460, 17.8 µM (inactive); in the assay on SF-539 it was 8.17 µM (inactive); in the assay on A549, 7.57 µM (inactive); in the assay on CAKI-1, 6.4 µM (inactive); in the assay on MOLT-4, 5.56 µM (inactive). The GI50 with NCI-H522 is 4.46 µM (inactive); with SK-OV-3 it was 6.21 µM (inactive); with HCT-116, 3.58 µM (inactive); in the assay with LOX IMVI, 8.09 µM (inactive); in the assay with MDA-N it was 1.87 µM (inactive); in the assay on SN12C, 6.62 µM (inactive).
Turning to `CC(C)=CC[C@H]1C[C@]2(CC=C(C)C)C(=O)[C@@](CC=C(C)C)(C(=O)C(C(=O)c3ccccc3)=C2O)C1(C)C` [6-EPI-CLUSIANONE], the GI50 is 3.94 µM (inactive) in the assay with COLO 205; 3.37 µM (inactive) in the assay with RPMI-8226; 4.27 µM (inactive) in the assay on SF-295; 4.67 µM (inactive) in the assay on HT-29; 6.28 µM (inactive) with SW-620; 5.2 µM (inactive) with T47D. For the same compound, the GI50 with EKVX was 5.05 µM (inactive); with NCI-H460, 3.3 µM (inactive); in the assay on SF-539 it was 11.6 µM (inactive); in the assay with A549, 4.94 µM (inactive); with CAKI-1, 4.44 µM (inactive); in the assay with MOLT-4, 4.56 µM (inactive). The GI50 with NCI-H522 was 5.38 µM (inactive); with SK-OV-3, 5.32 µM (inactive); in the assay with HCT-116 it was 3.63 µM (inactive); in the assay with LOX IMVI, 3.46 µM (inactive); in the assay with MDA-N, 5.21 µM (inactive); in the assay with SN12C it was 3.49 µM (inactive).
On to `O=C(c1ccccc1)c1ccc2nc3n(c2c1)C(c1c(Cl)cccc1Cl)SC3` (stereo not drawn), for which the GI50 with COLO 205 is 4.88 µM (inactive); with RPMI-8226, 3.51 µM (inactive); in the assay with SF-295 it was 3.37 µM (inactive); with HT-29, 6.31 µM (inactive); in the assay on SW-620, 3.53 µM (inactive); in the assay with T47D, 3.08 µM (inactive). In addition, the GI50 is 4.63 µM (inactive) in the assay on EKVX; 3.66 µM (inactive) in the assay with NCI-H460; 5.68 µM (inactive) with SF-539; 4.49 µM (inactive) in the assay on A549; 3.44 µM (inactive) in the assay on CAKI-1; 2.72 µM (inactive) in the assay with MOLT-4. Also, the GI50 in the assay with NCI-H522 is 1.74 µM (inactive); with SK-OV-3, 4.31 µM (inactive); with HCT-116, 3.26 µM (inactive); in the assay with LOX IMVI, 3.85 µM (inactive); in the assay on MDA-N it was 1.63 µM (inactive); in the assay with SN12C, 7.64 µM (inactive).
As to `COC(=O)[C@H](Cc1ccccc1)NC(=O)c1ccc(CNC(=O)/C=C/c2ccc(OCc3ccccc3)cc2)cc1`, the GI50 in the assay with COLO 205 is > 73.3 µM (inactive); with RPMI-8226, 39 µM (inactive); with SF-295, 18.4 µM (inactive); in the assay on HT-29, 13.5 µM (inactive); with SW-620, > 47.4 µM (inactive); in the assay on T47D it was 18.8 µM (inactive). Besides, the GI50 in the assay with EKVX is 25.7 µM (inactive); in the assay on NCI-H460, 19.5 µM (inactive); in the assay with SF-539, 16.4 µM (inactive); with A549, 27 µM (inactive); in the assay on CAKI-1, 12.1 µM (inactive); with MOLT-4, 6.17 µM (inactive). Moreover, the GI50 was 65.9 µM (inactive) in the assay with NCI-H522; 24.4 µM (inactive) with SK-OV-3; 25.2 µM (inactive) with HCT-116; 17.1 µM (inactive) with LOX IMVI; 2.19 µM (inactive) in the assay on MDA-N; 13.9 µM (inactive) in the assay with SN12C.
As to `CN(C)c1ccc(C(=C2C=CC(=[N+](C)C)C=C2)c2c(O)c(S(=O)(=O)[O-])cc3cc(S(=O)(=O)O)ccc23)cc1`, the GI50 in the assay on COLO 205, in the assay on RPMI-8226, with SF-295, in the assay with HT-29, with SW-620 and with T47D was > 100 µM (inactive) in each case. Further, the GI50 with EKVX, in the assay on NCI-H460, with SF-539, with A549, in the assay on CAKI-1 and in the assay on MOLT-4 was > 100 µM (inactive) throughout. The GI50 in the assay on NCI-H522, in the assay on SK-OV-3, in the assay with HCT-116, in the assay on LOX IMVI, in the assay on MDA-N and in the assay with SN12C was > 100 µM (inactive) each time.
As to `COc1cc2c(c(OC)c1)C(C)=NC(C)C2` (stereo not drawn), the GI50 with COLO 205, in the assay with RPMI-8226, in the assay on SF-295, in the assay with HT-29, in the assay on SW-620 and in the assay on T47D was > 100 µM (inactive) each time. In addition, the GI50 with EKVX, in the assay on NCI-H460, with SF-539, in the assay on A549, in the assay with CAKI-1 and in the assay with MOLT-4 was > 100 µM (inactive) in each case. Also, the GI50 was 76.7 µM (inactive) with NCI-H522; > 100 µM (inactive) in the assay on SK-OV-3; 51.2 µM (inactive) in the assay on HCT-116; > 100 µM (inactive) with LOX IMVI; > 100 µM (inactive) in the assay with MDA-N; > 100 µM (inactive) in the assay with SN12C.
Turning to `O=C1NC(Nc2cccc(Cl)c2)=N/C1=C\c1ccc(Cl)c(Cl)c1`, the GI50 in the assay with COLO 205 is 3.88 µM (inactive); in the assay with RPMI-8226 it was 3.99 µM (inactive); in the assay on SF-295, 4.05 µM (inactive); in the assay with HT-29 it was 6.73 µM (inactive); in the assay with SW-620 it was 3.68 µM (inactive); in the assay with T47D, 3.52 µM (inactive). The GI50 was 3.67 µM (inactive) in the assay with EKVX; 2.24 µM (inactive) in the assay on NCI-H460; 9.31 µM (inactive) in the assay with SF-539; 3.8 µM (inactive) with A549; 4.6 µM (inactive) with CAKI-1; 3.37 µM (inactive) in the assay on MOLT-4. In addition, the GI50 in the assay with NCI-H522 was 2.52 µM (inactive); with SK-OV-3, 12.4 µM (inactive); in the assay on HCT-116, 3.94 µM (inactive); in the assay with LOX IMVI, 2.14 µM (inactive); with MDA-N it was 4.52 µM (inactive); in the assay with SN12C, 2.54 µM (inactive).
As to `O=c1c(Cl)nsnc1Cl`, the GI50 in the assay with COLO 205 was 1.83 µM (inactive); in the assay on RPMI-8226, 1.54 µM (inactive); in the assay on SF-295, 18.4 µM (inactive); in the assay on HT-29, 24.2 µM (inactive); in the assay with SW-620 it was 3.43 µM (inactive); in the assay on T47D it was 3.08 µM (inactive). The GI50 with EKVX is 25.6 µM (inactive); in the assay on NCI-H460, 29.3 µM (inactive); with SF-539 it was 12.9 µM (inactive); in the assay with A549, 26.3 µM (inactive); in the assay on CAKI-1, 4.26 µM (inactive); with MOLT-4 it was 1.9 µM (inactive). For the same compound, the GI50 in the assay with NCI-H522 was 2.02 µM (inactive); in the assay with SK-OV-3, 19.1 µM (inactive); in the assay with HCT-116 it was 7.01 µM (inactive); with LOX IMVI, 9.23 µM (inactive); in the assay on MDA-N, 18.7 µM (inactive); in the assay with SN12C it was 20.2 µM (inactive).
On to `O=C1Oc2ccccc2C(=O)/C1=C/N1C(=O)CNC1=S`, for which the GI50 in the assay with COLO 205, with RPMI-8226, in the assay on SF-295, in the assay with HT-29, with SW-620 and in the assay with T47D was > 100 µM (inactive) each time. The GI50 with EKVX is > 100 µM (inactive); in the assay with NCI-H460 it was 63 µM (inactive); in the assay with SF-539, > 100 µM (inactive); with A549, > 100 µM (inactive); in the assay on CAKI-1, > 100 µM (inactive); in the assay with MOLT-4, > 100 µM (inactive). Further, the GI50 in the assay with NCI-H522 is > 100 µM (inactive); in the assay on SK-OV-3, 95.1 µM (inactive); with HCT-116 it was > 100 µM (inactive); in the assay on LOX IMVI, > 100 µM (inactive); in the assay on MDA-N, > 100 µM (inactive); in the assay on SN12C, > 100 µM (inactive).
With `Nc1ccccc1/N=C/c1cc2cc([N+](=O)[O-])ccc2s1`, the GI50 is 17.8 µM (inactive) in the assay with COLO 205; 5.52 µM (inactive) in the assay on RPMI-8226; 21.9 µM (inactive) with SF-295; 25.8 µM (inactive) with HT-29; 29.5 µM (inactive) with SW-620; 4.13 µM (inactive) with T47D. The GI50 was 18.6 µM (inactive) in the assay with EKVX; 5.58 µM (inactive) in the assay with NCI-H460; 12.1 µM (inactive) with SF-539; 8.47 µM (inactive) with A549; 15.5 µM (inactive) with CAKI-1; 3.08 µM (inactive) in the assay with MOLT-4. Also, the GI50 with NCI-H522 was 15.1 µM (inactive); in the assay on SK-OV-3, 13.9 µM (inactive); with HCT-116, 24.9 µM (inactive); in the assay with LOX IMVI, 13.9 µM (inactive); in the assay on MDA-N, 37.8 µM (inactive); with SN12C it was 23.8 µM (inactive).
